According to US9593305B2, “Differentiation of pluripotent stem cells” (Janssen Biotech, Inc., priority 2008, dated 2017):

What was measured:
[1] = tested on: H1 human embryonic stem cells; assay: Step-wise differentiation, RT-PCR of differentiation markers (Example 12, Table 13); type: cell-based; conditions: GDF-8 200 ng/ml with Wnt3a or 2.5 μM compound in step 1, versus activin A/Wnt3a
Experimental: Stock cultures of human embryonic stem cells (H1 human embryonic stem cell line) were maintained in an undifferentiated, pluripotent state on reduced growth factor […]™-coated dishes in MEF conditioned medium with passage on average every four days. Passage was performed by exposing cell cultures to a solution of 1 mg/ml dispase (Invitrogen; Cat #17105-041) for 5 to 7 minutes at 37° C. followed by rinsing the monolayer with MEF conditioned culture medium and gentle scraping to recover cell clusters. Clusters were centrifuged at low speed to collect a cell pellet and remove residual dispase. Cell clusters were split at a 1:3 or 1:4 ratio for routine maintenance culture or a 1:1 ratio for immediate assay. All human ES cell lines were maintained at passage numbers less than 50 and routinely evaluated for normal karyotype and absence of mycoplasma.
Cell clusters were evenly resuspended in MEF conditioned medium supplemented with 8 ng/ml bFGF and seeded onto reduced growth factor […]™-coated 24-well, black wall culture plates (Arctic White; Cat #AWLS-303012) in volumes of 0.5 ml/well. Daily feeding was conducted by aspirating spent culture medium from each well and replacing with an equal volume of fresh medium. Plates were maintained at 37° C., 5% CO2 throughout the duration of assay.
The assay was initiated by aspirating the culture medium from each well and adding back an aliquot (0.5 ml) of test medium. Test conditions for the first step of differentiation were conducted over a three-day period, feeding daily by aspirating and replacing the medium from each well with fresh test medium. On the first day of assay, 100 ng/ml activin A (PeproTech; Cat #120-14) or 200 ng/ml GDF-8 (R&D Systems, Cat #788-G8) was added to respective assay wells where each growth factor was diluted into RPMI-1640 medium (Invitrogen; Cat #22400) with 1% Albumin Bovine Fraction V, Fatty Acid Free (FAF BSA) (MP Biomedicals, Inc; Cat 152401), 1% Probumin (Millipore; Cat #81-068-3) and 20 ng/ml Wnt3a (R&D Systems; Cat #1324-WN/CF). […]

[2] = tested on: H1 human embryonic stem cells; assay: Step-wise differentiation, FACS for CXCR4 after step 1 (Example 12); type: cell-based; conditions: compared to activin A and Wnt3a
Experimental: The assay was initiated by aspirating the culture medium from each well and adding back an aliquot (0.5 ml) of test medium. Test conditions for the first step of differentiation were conducted over a three-day period, feeding daily by aspirating and replacing the medium from each well with fresh test medium. On the first day of assay, 100 ng/ml activin A (PeproTech; Cat #120-14) or 200 ng/ml GDF-8 (R&D Systems, Cat #788-G8) was added to respective assay wells where each growth factor was diluted into RPMI-1640 medium (Invitrogen; Cat #22400) with 1% Albumin Bovine Fraction V, Fatty Acid Free (FAF BSA) (MP Biomedicals, Inc; Cat 152401), 1% Probumin (Millipore; Cat #81-068-3) and 20 ng/ml Wnt3a (R&D Systems; Cat #1324-WN/CF). On the second day of assay, 100 ng/ml activin A or 200 ng/ml GDF-8 was diluted into RPMI-1640 medium supplemented with 2% FAF BSA without Wnt3a. In some test samples using GDF-8, Wnt3a was replaced with a either Compound 34 or Compound 56 at a concentration of 2.5 μM, and either Compound 34 or Compound 56 was added daily during all three days of definitive endoderm differentiation. At the conclusion of the first step of differentiation, cells from some wells were harvested for flow cytometry analysis to evaluate levels of CXCR4, a marker of definitive endoderm formation. Additional wells were harvested for RT-PCR analysis to measure other markers of differentiation.
Cells for FACS analysis were blocked in a 1:5 solution of 0.5% human gamma-globulin (Sigma; Cat#G-4386) in PBS (Invitrogen; Cat #14040-133): BD FACS staining buffer-BSA (BD; Cat #554657) for 15 minutes at 4° C. Cells were then stained with antibodies for CD9 PE (BD; Cat #555372), CD99 PE (Caltag; Cat #MHCD9904) and CXCR4 APC(R&D Systems; Cat#FAB 173A) for 30 minutes at 4° C. After a series of washes in BD FACS staining buffer, the cells were stained for viability with 7-AAD (BD; Cat #559925) and run on a BD FACSAiray. A mouse IgG1K Isotype control antibody for both PE and APC was used to gate percent positive cells.

[3] = 200 ng/ml GDF-8 with 2.5 μM compound all three days

O=C1CCN2CCN(CC2)Cc2cc(Cl)cc(c2)Nc2ncnc(n2)-c2cncc(c2)CCCN1 [Compound 34, 5-Chloro-1,8,10,12,16,22,26,32-octaazapentacyclo[24.2.2.1˜3.7˜0.1˜9,13˜0.1˜14.18˜]tritriaconta-3(33), 4,6,9(32), 10,12,14(31), 15,17-nonaen-23-one]
expression levels of markers associated with endodermal and endocrine differentiation (PCR) [1]: similar, or in some instances, improved expression levels | percentage of CXCR4 positive cells after step 1 [2, 3]: equivalent or higher percentage of CXCR4 positive cells

Cc1c[nH]c(-c2cnc(NCCNc3ccc(C#N)cn3)nc2-c2ccc(Cl)cc2Cl)n1 [Compound 56, 6-[(2-{[4-(2,4-Dichlorophenyl)-5-(4-methyl-1H-imidazol-2-yl)pyrimidin-2-yl]amino}ethyl)amino]pyridine-3-carbonitrile]
expression levels of markers associated with endodermal and endocrine differentiation (PCR) [1]: similar, or in some instances, improved expression levels | percentage of CXCR4 positive cells after step 1 [2, 3]: equivalent or higher percentage of CXCR4 positive cells

GDF-8: growth factor GDF-8, also known as myostatin, member of the TGF-β family
expression levels of markers associated with endodermal and endocrine differentiation (PCR) [1]: similar, or in some instances, improved expression levels | percentage of CXCR4 positive cells after step 1 ([2]; 200 ng/ml GDF-8 with Wnt3a): equivalent percentage of CXCR4 positive cells
